Patent publication US20250051300A1, “GRAM-NEGATIVE SPECIFIC ANTIBIOTICS SPARING EFFECT ON GUT MICROBIOME” (THE BOARD OF TRUSTEES OF THE UNIVERSITY OF ILLINOIS, priority 2021, published 2025)
Values after ≈ are worked out from the molar mass of the structure shown. Like-named read-outs stand apart in the source and are kept apart here.

What was measured:
[1] = tested on: Enterobacter cloacae; experiment: MIC, micro-dilution broth method (CLSI); type: cell-based; settings: Enterobacter cloacae, read-out: MIC
[2] = tested on: E. coli AR0349; experiment: Bacterial sepsis survival model; type: in vivo, CD-1 mice; settings: 100 mg/kg IP twice daily for 3 days
[3] = tested on: clinical isolates of E. coli, K. pneumoniae, and E. cloacae; experiment: Susceptibility of panel of multidrug-resistant clinical isolates
[4] = tested on: E. coli AR0349; experiment: Acute pneumonia bacterial burden model; type: in vivo, CD-1 mice; settings: 100 mg/kg IP twice a day for 3 days, lungs, 72 h post-infection
[5] = tested on: Escherichia coli; experiment: MIC, micro-dilution broth method (CLSI); type: cell-based
[6] = Aqueous solubility limit; type: physicochemical; settings: cation-adjusted Mueller Hinton broth (MIC assay medium); limit to which compounds were tested in MIC assays

Fc1ccc(COc2cccc(-c3n[nH]cc3-c3ccncc3)c2)cc1 [Compound 2, 4-(3-(3-((4-fluorobenzyl)oxy)phenyl)-1H-pyrazol-4-yl)pyridine]
MIC ([1]; E. cloacae AR0053): > 32 µg/mL
MIC ([1]; E. cloacae AR0060): 16 µg/mL (≈ 46.3 µM)
MIC ([1]; E. cloacae AR0065): 16 µg/mL (≈ 46.3 µM)
MIC ([1]; E. cloacae AR0072): > 32 µg/mL
MIC ([1]; E. cloacae AR0073): > 32 µg/mL
MIC ([1]; E. cloacae AR0093): > 32 µg/mL
MIC ([1]; E. cloacae AR0132): > 32 µg/mL
MIC ([1]; E. cloacae AR0136): > 32 µg/mL
MIC ([1]; E. cloacae AR0154): 8 µg/mL (≈ 23.2 µM)
MIC ([1]; E. cloacae AR0164): > 32 µg/mL
MIC ([1]; E. cloacae AR0544): > 32 µg/mL
MIC ([1]; E. cloacae AR0545): > 32 µg/mL
MIC ([1]; E. cloacae AR-0163): > 32 µg/mL
mice with septic infection rescued (survival) [2]: fared poorly
activity against MDR clinical isolates [3]: only minimal activity
reduction in bacterial burden [4]: fared poorly
MIC ([5]; E. coli AR-0349 (colistin-resistant clinical isolate)): >32 µg/mL
MIC ([5]; E. coli AR-0549): >32 µg/mL
MIC ([5]; Escherichia coli, ATCC25922, E. coli ATCC 25922, read-out: MIC): 8 µg/mL (≈ 23.2 µM)
MIC ([5]; Escherichia coli, ATCCBAA2340, E. coli ATCC BAA-2340, read-out: MIC): > 32 µg/mL
MIC ([5]; Escherichia coli, ATCCBAA2469, E. coli ATCC BAA-2469, read-out: MIC): > 32 µg/mL
MIC ([5]; Escherichia coli, ATCCBAA2471, E. coli ATCC BAA-2471, read-out: MIC): > 32 µg/mL
MIC ([5]; Escherichia coli, E. coli AR0048, read-out: MIC): > 32 µg/mL
MIC ([5]; Escherichia coli, E. coli AR0055, read-out: MIC): > 32 µg/mL
MIC ([5]; Escherichia coli, E. coli AR0058, read-out: MIC): > 32 µg/mL
MIC ([5]; Escherichia coli, E. coli AR0061, read-out: MIC): > 32 µg/mL
MIC ([5]; Escherichia coli, E. coli AR0067, read-out: MIC): > 32 µg/mL
MIC ([5]; Escherichia coli, E. coli AR0069, read-out: MIC): > 32 µg/mL
MIC ([5]; Escherichia coli, E. coli AR0077, read-out: MIC): 8 µg/mL (≈ 23.2 µM)
MIC ([5]; Escherichia coli, E. coli AR0081, read-out: MIC): 16 µg/mL (≈ 46.3 µM)
MIC ([5]; Escherichia coli, E. coli AR0084, read-out: MIC): > 32 µg/mL
MIC ([5]; Escherichia coli, E. coli AR0085, read-out: MIC): > 32 µg/mL
MIC ([5]; Escherichia coli, E. coli AR0086, read-out: MIC): 8 µg/mL (≈ 23.2 µM)
MIC ([5]; Escherichia coli, E. coli AR0089, read-out: MIC): > 32 µg/mL
MIC ([5]; Escherichia coli, E. coli AR0104, read-out: MIC): 16 µg/mL (≈ 46.3 µM)
MIC ([5]; Escherichia coli, E. coli AR0114, read-out: MIC): > 32 µg/mL
MIC ([5]; Escherichia coli, E. coli AR0118, read-out: MIC): 16 µg/mL (≈ 46.3 µM)
MIC ([5]; Escherichia coli, E. coli AR0119, read-out: MIC): > 32 µg/mL
MIC ([5]; Escherichia coli, E. coli AR0128, read-out: MIC): 16 µg/mL (≈ 46.3 µM)
MIC ([5]; Escherichia coli, E. coli AR0137, read-out: MIC): 16 µg/mL (≈ 46.3 µM)
MIC ([5]; Escherichia coli, E. coli AR0149, read-out: MIC): > 32 µg/mL
MIC ([5]; Escherichia coli, E. coli AR0150, read-out: MIC): 16 µg/mL (≈ 46.3 µM)
MIC ([5]; Escherichia coli, E. coli AR0151, read-out: MIC): > 32 µg/mL
MIC ([5]; Escherichia coli, E. coli AR0162, read-out: MIC): > 32 µg/mL
MIC ([5]; Escherichia coli, E. coli AR0346, read-out: MIC): > 32 µg/mL
MIC ([5]; Escherichia coli, E. coli AR0348, read-out: MIC): > 32 µg/mL
MIC ([5]; Escherichia coli, E. coli AR0350, read-out: MIC): > 32 µg/mL
MIC ([5]; Escherichia coli, E. coli AR0493, read-out: MIC): > 32 µg/mL
MIC ([5]; Escherichia coli, E. coli AR0494, read-out: MIC): > 32 µg/mL
MIC ([5]; Escherichia coli, E. coli AR0495, read-out: MIC): > 32 µg/mL
MIC ([5]; Escherichia coli, E. coli AR0541, read-out: MIC): > 32 µg/mL
MIC ([5]; Escherichia coli, E. coli AR0543, read-out: MIC): > 32 µg/mL
MIC ([5]; Escherichia coli, E. coli AR0546, read-out: MIC): > 32 µg/mL
MIC ([5]; Escherichia coli, E. coli AR0551, read-out: MIC): > 32 µg/mL
MIC ([5]; Escherichia coli, E. coli AR0559, read-out: MIC): > 32 µg/mL
MIC ([5]; Escherichia coli, E. coli AR-0349 (colistin-resistant clinical isolate), read-out: MIC): > 32 µg/mL
MIC ([5]; Escherichia coli, E. coli AR-0549, read-out: MIC): > 32 µg/mL
MIC ([5]; Escherichia coli, E. coli ELZ 4004, read-out: MIC): > 32 µg/mL
MIC ([5]; Escherichia coli, E. coli ELZ 4017, read-out: MIC): 8 µg/mL (≈ 23.2 µM)
MIC ([5]; Escherichia coli, E. coli ELZ 4042, read-out: MIC): > 32 µg/mL
MIC ([5]; Escherichia coli, E. coli ELZ 4072, read-out: MIC): 8 µg/mL (≈ 23.2 µM)
MIC ([5]; Escherichia coli, E. coli ELZ 4081, read-out: MIC): 4 µg/mL (≈ 11.6 µM)
MIC ([5]; Escherichia coli, E. coli ELZ 4139, read-out: MIC): > 32 µg/mL
MIC ([5]; Escherichia coli, E. coli ELZ 4239, read-out: MIC): > 32 µg/mL
MIC ([5]; Escherichia coli, E. coli ELZ 4277, read-out: MIC): > 32 µg/mL
MIC ([5]; Escherichia coli, E. coli ELZ 4346, read-out: MIC): > 32 µg/mL
MIC ([5]; Escherichia coli, E. coli ΔrfaC JW3596 (permeability mutant)): 1 µg/mL (≈ 2.9 µM)
MIC ([5]; Escherichia coli, E. coli ΔtolC JW5503 (efflux-deficient)): 0.06 µg/mL (≈ 0.174 µM)
solubility [6]: 32 µg/mL (≈ 92.7 µM)
